Here are results for 20 compounds from publication PMC8002023, “3D Pharmacophore-Based Discovery of Novel KV10.1 Inhibitors with Antiproliferative Activity” (Cancers, 2021).

Series [1] has as its target T1, KV10.1 (Homo sapiens, UniProt O95259).
T1 construct: expressed in transfected cells
T1 sequence (O95259 1-962 isoform O95259-2): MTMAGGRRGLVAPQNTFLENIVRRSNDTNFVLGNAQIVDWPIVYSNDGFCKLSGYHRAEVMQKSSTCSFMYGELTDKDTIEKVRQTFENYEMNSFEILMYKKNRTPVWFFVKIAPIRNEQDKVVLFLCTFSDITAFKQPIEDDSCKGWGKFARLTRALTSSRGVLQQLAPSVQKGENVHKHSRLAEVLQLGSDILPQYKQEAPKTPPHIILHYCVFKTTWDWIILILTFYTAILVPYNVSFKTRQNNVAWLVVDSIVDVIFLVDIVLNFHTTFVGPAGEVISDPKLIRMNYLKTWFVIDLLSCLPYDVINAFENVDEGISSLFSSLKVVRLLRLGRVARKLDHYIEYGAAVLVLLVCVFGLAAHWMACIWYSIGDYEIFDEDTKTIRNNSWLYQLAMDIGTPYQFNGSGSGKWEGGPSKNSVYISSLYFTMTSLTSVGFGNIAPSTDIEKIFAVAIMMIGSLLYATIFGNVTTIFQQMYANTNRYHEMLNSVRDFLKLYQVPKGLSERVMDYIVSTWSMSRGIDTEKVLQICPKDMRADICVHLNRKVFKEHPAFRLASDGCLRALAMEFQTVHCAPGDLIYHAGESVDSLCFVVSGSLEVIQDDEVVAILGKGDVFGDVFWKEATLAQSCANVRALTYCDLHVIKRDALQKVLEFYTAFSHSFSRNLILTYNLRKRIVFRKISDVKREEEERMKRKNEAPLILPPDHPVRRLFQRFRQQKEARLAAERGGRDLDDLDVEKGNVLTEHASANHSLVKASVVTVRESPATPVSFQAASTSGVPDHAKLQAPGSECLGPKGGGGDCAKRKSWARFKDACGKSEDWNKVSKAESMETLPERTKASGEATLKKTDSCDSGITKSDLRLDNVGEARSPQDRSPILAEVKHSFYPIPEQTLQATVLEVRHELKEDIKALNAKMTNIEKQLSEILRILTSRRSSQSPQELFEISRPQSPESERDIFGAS
Kind of series: Whole-cell patch clamp on HEK-293 cells stably expressing KV10.1. In kind it is cell-based. As to conditions: for inhibition at 10 µM: HEK293, mean ± standard error (or range); for KV10.1 inhibitory activity: SAR discussion of Table 3 (10 μM). A general note: The patch-clamp technique gives a direct electrical read-out from membranes.

The target of series [2] is T2, hERG (Homo sapiens, UniProt Q12809).
T2 construct: expressed in transfected cells
T2 sequence (Q12809 whole entry): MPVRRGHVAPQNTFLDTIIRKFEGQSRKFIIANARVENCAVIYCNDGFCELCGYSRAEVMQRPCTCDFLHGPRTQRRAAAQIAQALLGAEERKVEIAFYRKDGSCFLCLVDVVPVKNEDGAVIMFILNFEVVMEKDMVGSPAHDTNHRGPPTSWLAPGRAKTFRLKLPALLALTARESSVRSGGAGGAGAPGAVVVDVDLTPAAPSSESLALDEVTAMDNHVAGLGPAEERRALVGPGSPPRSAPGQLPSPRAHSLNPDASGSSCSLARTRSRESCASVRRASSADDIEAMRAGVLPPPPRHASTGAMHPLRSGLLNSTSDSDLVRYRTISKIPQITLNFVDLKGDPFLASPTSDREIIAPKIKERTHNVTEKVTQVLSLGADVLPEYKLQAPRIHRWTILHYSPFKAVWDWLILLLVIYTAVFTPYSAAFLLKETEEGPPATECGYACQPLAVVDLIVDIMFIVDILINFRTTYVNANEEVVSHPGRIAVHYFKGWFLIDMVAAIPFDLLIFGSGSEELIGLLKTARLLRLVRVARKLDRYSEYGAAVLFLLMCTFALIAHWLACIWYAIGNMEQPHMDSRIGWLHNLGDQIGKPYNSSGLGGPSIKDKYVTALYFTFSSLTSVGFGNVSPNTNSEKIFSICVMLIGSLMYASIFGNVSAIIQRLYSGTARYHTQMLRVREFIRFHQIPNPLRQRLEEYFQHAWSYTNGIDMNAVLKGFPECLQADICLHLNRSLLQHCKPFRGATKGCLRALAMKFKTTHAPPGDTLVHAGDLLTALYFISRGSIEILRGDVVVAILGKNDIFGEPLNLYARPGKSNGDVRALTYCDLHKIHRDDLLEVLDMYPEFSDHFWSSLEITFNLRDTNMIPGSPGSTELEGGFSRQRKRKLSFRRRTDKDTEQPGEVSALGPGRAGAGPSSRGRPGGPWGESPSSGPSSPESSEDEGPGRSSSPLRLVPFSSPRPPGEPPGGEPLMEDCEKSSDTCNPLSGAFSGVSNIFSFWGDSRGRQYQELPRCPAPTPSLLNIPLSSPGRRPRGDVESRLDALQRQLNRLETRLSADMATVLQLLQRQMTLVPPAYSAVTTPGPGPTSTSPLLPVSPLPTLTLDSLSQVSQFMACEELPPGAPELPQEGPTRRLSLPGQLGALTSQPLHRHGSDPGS
Kind of series: Whole-cell patch clamp on stably transfected HEK-293 cells, hERG tail current. It counts as cell-based. The following applies: peak tail current at −40 mV after +20 mV. Here is the method: (§1) Whole-cell patch clamp experiments were performed on stably transfected HEK-293 cells. The cells were grown on fibronectin-coated glass coverslips in DMEM supplemented with 10% FCS and 300 µg/mL Zeocin. Experiments were performed at room temperature under continuous perfusion. The extracellular solution contained (mM) 160 NaCl, 2.5 KCl, 2 CaCl2, 1 MgCl2, 10 Hepes/NaOH, pH 7.4, 8 glucose. For the experiments determining conductance–voltage relationships, tail currents were made visible by substituting 60 mM NaCl by KCl ([…], 100 NaCl). Pipettes were pulled from #1 glass capillaries (WPI) to resistances of 1–3 MΩ when loaded with the intracellular solution (100 KCl, 45 N-methyl-D-glucamine, 10 1,2-bis(o-aminophenoxy)ethane-N,N,N′,N′-tetraacetic acid (BAPTA), 10 Hepes pH 7.35). Data acquisition was performed using a EPC10 Plus amplifier (HEKA Elektronik) and Patch Master software. Drug application was performed using an 8-channel fast solution exchanger (ALA). All compounds were dissolved in DMSO to a final concentration of 10 mM. 0.5% DMSO in extracellular solution served as control. KV10.1 currents were elicited by 500 ms depolarisations to +40 mV under continuous perfusion with the compound-containing or control solution. hERG current amplitudes were measured as the peak tail current during a 4 s repolarization to −40 mV after a depolarising pulse to +20 mV lasting for 2 s.

In series [3] the target is T1, KV10.1. Kind of series: Whole-cell patch clamp on HEK-293 cells stably expressing KV10.1. In kind it is cell-based. The following applies: for inhibition at 50 µM: HEK293, compound concentration 50 μM, stimuli to +40 mV, mean ± standard error, read-out: Effect on Kv10.1 (% Inhibition). The protocol: as §1
The nine selected in silico hits were tested by manual patch-clamp on a HEK293 cell line stably expressing KV10.1 [33] at a compound concentration of 50 μM (Table 1). Compound activity was tested by determining the current amplitude elicited by repetitive stimuli to +40 mV from a holding potential of −80 mV. […] The hit compound ZVS-08 represents a new structural class of KV10.1 inhibitors with diarylamine structure and has a unique structure among the acquired virtual screening hits. […] The most notable change from the purpurealidin analogues is the replacement of the hydrogen bond acceptor group of the amide bond with the oxygen atom of the nitro group of ZVS-08.

Series [4] concerns Panc1 cells. Description: Cell growth in 2D culture (Incucyte confluence, 72 h), Panc1. It counts as cell-based. As to conditions: Homo sapiens, PANC-1, no KV10.1 and high hERG expression. Here is the method: (§2) Cell lines MCF-7 (DSMZ ACC 115), PANC-1 (DSMZ ACC 783), and hTERT-RPE1 (ATCC CRL 4000) were grown in the media recommended by the cell provider in a humidified atmosphere at 5% CO2 and 37 °C. For cell growth experiments, 10^4 cells/well were seeded in 96-well flat bottom culture plates (Corning) and allowed to grow for 24 h. The compounds were then added in the corresponding growth medium, and the plate was imaged every hour for 72 h (two images per well and eight wells per condition in two independent experiments for compound 8 and five for ZVS-08 and compound 1) in an Incucyte system (Sartorius/Essen biosciences). Culture confluence was determined in the phase contrast images and is expressed as percent confluence per well. The growth was then normalised to the value in the absence of compounds.
KV10.1 inhibitors with a favourable pharmacological profile are promising candidates for cancer therapy. […] Different concentrations of the compounds were added to the culture medium and the growth of the cell was monitored over 72 h (Figure 14).
Background: hERG is a cardiac potassium channel; its block is linked to QT prolongation.

The test system of series [5] is Colo357 tumour spheroids. Kind of series: Apoptosis (caspase 3/7 reporter) in tumour spheroids. It counts as cell-based. The following applies: 50 µM, caspase reporter fluorescence over 72 h, 8.9 µM cycloheximide as sensitizer. Here is the method:
Spheroids were cultured in round bottom ultra-low attachment 96-well plates (Corning) at a density of 5000 cells/well in 2% Matrigel (Corning) and centrifuged at 1000× g for 10 min. Spheroid formation was monitored continuously in the Incucyte system and treatments were added once spheroids were formed. As apoptosis sensitizer, 8.9 µM cycloheximide was added to controls and treated spheroids. Caspase 3/7 green reagent (Sartorius; 1:1000) was used as recommended by the manufacturer. Caspase 3/7 reagent substrate crosses the cell membrane and its cleavage by activated caspase-3/7 results in the release of a DNA dye and fluorescent staining of nuclear DNA.
To test the ability of the compounds to inhibit tumour progression in a more predictive system, we performed experiments on tumour spheroids of the pancreatic cancer cell line Colo357, which grows efficiently in this culture modality. The cells were seeded in the presence of Matrigel (see methods), allowed to form spheroids, and the compounds (50 µM) were added to the growth medium. The control contained the same amount of the vehicle (0.5% DMSO). Apoptosis was monitored by addition of a fluorescent […] activity reporter at the same time as the compounds. Cleavage of the reporter by caspase results in green florescence, and the intensity of the fluorescence was recorded over 72 h.

Series [6] relates to MCF-7 cells. Kind of series: Cell growth in 2D culture (Incucyte confluence, 72 h), MCF-7. It counts as cell-based. As to conditions: high KV10.1 and low hERG expression. Here is the method:
as §2
KV10.1 inhibitors with a favourable pharmacological profile are promising candidates for cancer therapy. To investigate the activity of the new compounds on cancer cells proliferation, compounds ZVS-08, 1 and 8 were tested on MCF-7, a breast cancer cell line showing high KV10.1 expression and low hERG expression, and on Panc1, a pancreatic cancer cell line with undetectable KV10.1 expression and high level of hERG expression. hTERT-RPE1 cells served as a non-cancer cell line. hTERT-RPE1 cells show transient physiological expression of Kv10.1 that begins during the G2 phase of the cell cycle and extends through mitosis as present in normal cells. Different concentrations of the compounds were added to the culture medium and the growth of the cell was monitored over 72 h (Figure 14).

Series [7] concerns the target T1, KV10.1. On the set-up: method as in PMID 15365094. The following applies: open-channel blocker; cited from earlier work.

Like-named read-outs stand apart in the source and are kept apart here.

As usually defined, the inhibition is the change of the read-out against control, counted positive when it falls. One may read the IC50 as the point on the concentration scale where inhibition reaches its midpoint. Usually melting point stands for the temperature, or range, at which the solid turns liquid.

With `CN(C)CCCOc1ccc(Nc2ccc(C(F)(F)F)cc2[N+](=O)[O-])cc1` [Compound 1], the inhibition at 10 µM in series [1] was determined as 87.3 ± 4.6%. Also, the IC50 in series [2] is 207 nM; in series [3] (HEK-293, 500 ms depolarisation to +40 mV, read-out: IC50 Kv10.1), 740 nM; in series [4], more than 30000 nM; in series [6] (Homo sapiens, MCF7, 72 h), 5480 nM; in series [6], approximately 5000 nM. For the same compound, the “apoptosis induction in tumour spheroids” value in series [5] is reported as “required longer time, but reached similar efficacy”.

Turning to `O=[N+]([O-])c1ccccc1Nc1ccc(OCC(O)CN2CCOCC2)cc1` (stereo not drawn) [Compound 2], the melting point is 95.6 to 97.5 °C. Further, the inhibition at 10 µM in series [1] was 23.9 ± 26.8%.

In the case of `CN(C)CC(O)COc1ccc(Nc2ccccc2)cc1` (stereo not drawn) [Compound 3], the melting point was 88 to 90.1 °C. For the same compound, in series [1], the inhibition at 10 µM was determined as 22.1 ± 33.5% and the “KV10.1 inhibitory activity” value is “almost inactive”.

For `CN(C)CCCOc1ccc(Nc2ccccc2[N+](=O)[O-])cc1` [Compound 4], in series [1], the inhibition at 10 µM worked out at 36.6 ± 19.9%.

With `O=[N+]([O-])c1cc(C(F)(F)F)ccc1Nc1ccc(OCC(O)CNc2ccccc2)cc1` (stereo not drawn) [Compound 5], in series [1], the inhibition at 10 µM was 2.53 ± 11.7%.

Compound `CN(C)CC(O)COc1ccc(Nc2ccc(C(F)(F)F)cc2)cc1` (stereo not drawn) [Compound 6] returned a melting point of 76.3 to 79.1 °C. In addition, the inhibition at 10 µM in series [1] was determined as 57.5 ± 28.4%.

With `CN(C)CC(O)COc1ccc(Nc2ccccc2[N+](=O)[O-])cc1` (stereo not drawn) [Compound 7], the melting point fell in the range of 76.1 to 77.3 °C. Moreover, the inhibition at 10 µM in series [1] was found to be 21 ± 30.3%.

Consider `COC(=O)c1ccccc1Nc1ccc(OCC(O)CN(C)C)cc1` (stereo not drawn) [Compound 9], for which, in series [1], the inhibition at 10 µM was determined as 2 ± 7.45% and the “KV10.1 inhibitory activity” value is “inactive”.

As to `CN(C)CC(O)COc1ccc(Nc2ccc(C(F)(F)F)cc2N)cc1` (stereo not drawn) [Compound 10], the inhibition at 10 µM in series [1] is 57 ± 21.7%.

`CN(C)CC(O)COc1ccc(Nc2ccccc2C(=O)O)cc1` (stereo not drawn) [Compound 11]: in series [1], the inhibition at 10 µM came to 37.7 ± 7.13% and the “KV10.1 inhibitory activity” value was “inactive”.

`CC(=O)NCC(O)COc1ccc(Nc2ccc(C(F)(F)F)cc2[N+](=O)[O-])cc1` (stereo not drawn) [Compound 12]: the inhibition at 10 µM in series [1] came to 16.6 ± 38.4%.

On to `Cc1cccnc1C(=O)NCc1cnc(CCC2CCN(C)CC2)cn1` [ZVS-01], for which the inhibition at 50 µM in series [3] is -1.13 ± 4.5%.

`CN1CCN(S(=O)(=O)c2ccc(CNC(=O)c3ccccc3)s2)CC1` [ZVS-02]: in series [3], the inhibition at 50 µM was 5.03 ± 2.87%.

With `CN1CCOC(c2nccc(CNC(=O)Cc3cccs3)n2)C1` (stereo not drawn) [ZVS-03], the inhibition at 50 µM in series [3] was -1.14 ± 3.47%.

On to `O=C(CCN1CCOCC1)Nc1ccc(S(=O)(=O)Nc2cc(Cl)cc(Cl)c2)cc1` [ZVS-04], for which the inhibition at 50 µM in series [3] was -0.86 ± 0.75%.

`CN1CCN(c2cc(CNC(=O)Cc3noc4ccccc34)ccn2)CC1` [ZVS-05]: in series [3], the inhibition at 50 µM came to 8.84 ± 4.92%.

Turning to `CN1CCN(c2cc(CNC(=O)c3cc(=O)[nH]c4ccccc34)ccn2)CC1` [ZVS-06], the inhibition at 50 µM in series [3] is -7.5 ± 4.65%.

In the case of `COc1ccc(F)cc1C(=O)NCc1cnc(C2CCN(C)C2)[nH]1` (stereo not drawn) [ZVS-07], the inhibition at 50 µM in series [3] came out at 4.68 ± 1.63%.

`CN(C)Cc1cncc(C2CCCN2C(=O)c2ccc3c(c2)CCC3)n1` (stereo not drawn) [ZVS-09]: the inhibition at 50 µM in series [3] came out at 0.15 ± 1.67%.

For the compound `COc1ccc(CCN2CCC(Nc3nc4ccccc4n3Cc3ccc(F)cc3)CC2)cc1` [astemizole], the IC50 in series [7] was approximately 200 nM.
